# Experimental data reported in ChEMBL document CHEMBL1201862, “PubChem BioAssay data set” (2004).
# Structures can show the parent of a compound that is named as a salt. Calls of active or inactive are those of the source.
# Columns and labels:
# Bcl-2-like protein 10 = biological target: T1, Bcl-2-like protein 10 (Homo sapiens, UniProt Q9HD36); experiment: displacers of TR3 peptide from Bcl-B, primary screen, selectivity assay for Bfl-1 inhibitor project, biochemical, fluorescence polarization, FITC-TR3 peptide (AID 748);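 also: fluorescence polarization from a fluorescein-labelled TR3 peptide binding purified Bcl-B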
# T1 sequence (Q9HD36 whole entry): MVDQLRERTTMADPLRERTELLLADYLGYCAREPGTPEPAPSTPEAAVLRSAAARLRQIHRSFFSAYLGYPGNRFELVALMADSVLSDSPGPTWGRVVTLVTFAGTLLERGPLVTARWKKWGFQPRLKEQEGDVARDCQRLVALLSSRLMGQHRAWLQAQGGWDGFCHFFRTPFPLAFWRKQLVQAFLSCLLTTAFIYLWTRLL
# [1] = Luminescence Cell-Based Dose Response to Identify Activators of Luciferase Translation or Activity in H4-C Neuroglioblastoma Cells. [Related pubchem assays: 1829 (Project Summary), 1814 (Primary HTS)]; type: functional
# [2] = Luminescence Cell-Based Dose Confirmation HTS to Identify Activators of 5'UTR Stem-Loop Driven Alpha-Synuclein mRNA Translation in H4 Neuroglioblastoma Cells. [Related pubchem assays: 1829 (Project Summary), 1814 (Primary HTS)]; type: functional
# [3] = Luminescence Cell-Based Dose Confirmation to Identify Activators of 5'UTR Stem-Loop Driven Alpha-Synuclein mRNA Translation in H4 Neuroglioblastoma Cells. [Related pubchem assays: 1829 (Project Summary), 1814 (Primary HTS)]; type: functional
# [4] = Luminescence Cell-Based Dose Response HTS to Identify Activators of Luciferase Translation or Activity in H4 […] Cells. [Related pubchem assays: 1829 (Project Summary), 1814 (Primary HTS)]; type: functional
# H4 = experiment: Luminescence Cell-Based Dose Response HTS to Identify Activators of 5'UTR Stem-Loop Driven Prion Protein mRNA Translation in H4 Neuroglioblastoma Cells. [Related pubchem assays: 1829 (Project Summary), 1814 (Primary HTS)]; type: functional; settings: Homo sapiens
# [5] = Luminescence Cell-Based Dose Response to Identify Activators of 5'UTR Stem-Loop Driven Prion Protein mRNA Translation in H4-C Neuroglioblastoma Cells. [Related pubchem assays: 1829 (Project Summary), 1814 (Primary HTS)]; type: functional
# [6] = Luminescence-based cell-based high throughput dose response assay to identify activators of the DAF-12 from the parasite S. stercoralis (ssDAF-12).; type: functional
# [7] = biological target: T2, Heat shock factor protein 1 (Mus musculus, UniProt P38532); experiment: HSF1 potentiators in luciferase reporter cells, confirmation, cell-based, NIH3T3, luminescence, dose retest (AID 435004); type: functional;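 also: stress induced by proteasome inhibitor MG132 added 30 min after compound; luciferase reporter driven by HSF1 response element in NIH3T3 cells; actives raise luminescence as potentiators of the MG132 stress response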
# T2 sequence (P38532 whole entry): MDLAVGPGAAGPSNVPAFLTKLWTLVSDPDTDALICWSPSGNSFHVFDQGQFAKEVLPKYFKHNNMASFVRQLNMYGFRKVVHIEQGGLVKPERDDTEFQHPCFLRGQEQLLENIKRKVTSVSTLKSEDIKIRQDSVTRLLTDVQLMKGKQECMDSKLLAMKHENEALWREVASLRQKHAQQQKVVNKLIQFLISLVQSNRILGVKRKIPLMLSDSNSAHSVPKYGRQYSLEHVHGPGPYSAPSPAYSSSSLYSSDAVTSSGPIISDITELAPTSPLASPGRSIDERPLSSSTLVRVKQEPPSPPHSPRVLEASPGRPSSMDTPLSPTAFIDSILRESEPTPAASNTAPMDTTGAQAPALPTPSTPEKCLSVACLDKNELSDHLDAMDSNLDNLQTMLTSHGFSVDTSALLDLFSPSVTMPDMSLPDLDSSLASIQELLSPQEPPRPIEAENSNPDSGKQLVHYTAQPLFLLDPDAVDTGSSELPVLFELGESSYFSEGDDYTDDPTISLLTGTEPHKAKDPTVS
# [8] = biological target: T3, Oxysterols receptor LXR-beta (Homo sapiens, UniProt P55055); experiment: LXR agonists, Gal4 luciferase reporter, dose response, counter-screen for ssDAF-12 agonist project, cell-based, luminescence, HEK293, S. stercoralis campaign (AID 720737); type: functional; settings: read-out: IC50 (the source's name)
# T3 sequence (P55055 whole entry): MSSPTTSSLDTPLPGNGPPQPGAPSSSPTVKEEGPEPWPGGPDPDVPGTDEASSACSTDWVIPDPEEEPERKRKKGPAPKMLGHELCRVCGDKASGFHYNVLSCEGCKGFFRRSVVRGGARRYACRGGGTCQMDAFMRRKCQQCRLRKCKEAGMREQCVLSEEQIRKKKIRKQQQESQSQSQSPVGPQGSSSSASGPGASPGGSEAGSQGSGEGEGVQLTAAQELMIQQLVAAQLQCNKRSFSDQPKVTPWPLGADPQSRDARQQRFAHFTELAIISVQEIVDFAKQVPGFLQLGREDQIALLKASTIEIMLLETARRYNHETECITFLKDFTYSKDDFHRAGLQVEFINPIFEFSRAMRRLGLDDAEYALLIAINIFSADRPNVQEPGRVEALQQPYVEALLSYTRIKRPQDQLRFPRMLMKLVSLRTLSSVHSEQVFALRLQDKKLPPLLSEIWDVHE
# Fatty acid synthase [9] = biological target: T4, Fatty acid synthase (Homo sapiens, UniProt P49327); experiment: FAS thioesterase domain inhibitors, dose response, biochemical, endpoint fluorescence intensity, uHTS hits (AID 624327); type: functional;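 also: fluorescence from hydrolysis of an O-methyl fluorescein acyl ester substrate by the enzyme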
# T4 sequence (P49327 whole entry, the tested form may be a part): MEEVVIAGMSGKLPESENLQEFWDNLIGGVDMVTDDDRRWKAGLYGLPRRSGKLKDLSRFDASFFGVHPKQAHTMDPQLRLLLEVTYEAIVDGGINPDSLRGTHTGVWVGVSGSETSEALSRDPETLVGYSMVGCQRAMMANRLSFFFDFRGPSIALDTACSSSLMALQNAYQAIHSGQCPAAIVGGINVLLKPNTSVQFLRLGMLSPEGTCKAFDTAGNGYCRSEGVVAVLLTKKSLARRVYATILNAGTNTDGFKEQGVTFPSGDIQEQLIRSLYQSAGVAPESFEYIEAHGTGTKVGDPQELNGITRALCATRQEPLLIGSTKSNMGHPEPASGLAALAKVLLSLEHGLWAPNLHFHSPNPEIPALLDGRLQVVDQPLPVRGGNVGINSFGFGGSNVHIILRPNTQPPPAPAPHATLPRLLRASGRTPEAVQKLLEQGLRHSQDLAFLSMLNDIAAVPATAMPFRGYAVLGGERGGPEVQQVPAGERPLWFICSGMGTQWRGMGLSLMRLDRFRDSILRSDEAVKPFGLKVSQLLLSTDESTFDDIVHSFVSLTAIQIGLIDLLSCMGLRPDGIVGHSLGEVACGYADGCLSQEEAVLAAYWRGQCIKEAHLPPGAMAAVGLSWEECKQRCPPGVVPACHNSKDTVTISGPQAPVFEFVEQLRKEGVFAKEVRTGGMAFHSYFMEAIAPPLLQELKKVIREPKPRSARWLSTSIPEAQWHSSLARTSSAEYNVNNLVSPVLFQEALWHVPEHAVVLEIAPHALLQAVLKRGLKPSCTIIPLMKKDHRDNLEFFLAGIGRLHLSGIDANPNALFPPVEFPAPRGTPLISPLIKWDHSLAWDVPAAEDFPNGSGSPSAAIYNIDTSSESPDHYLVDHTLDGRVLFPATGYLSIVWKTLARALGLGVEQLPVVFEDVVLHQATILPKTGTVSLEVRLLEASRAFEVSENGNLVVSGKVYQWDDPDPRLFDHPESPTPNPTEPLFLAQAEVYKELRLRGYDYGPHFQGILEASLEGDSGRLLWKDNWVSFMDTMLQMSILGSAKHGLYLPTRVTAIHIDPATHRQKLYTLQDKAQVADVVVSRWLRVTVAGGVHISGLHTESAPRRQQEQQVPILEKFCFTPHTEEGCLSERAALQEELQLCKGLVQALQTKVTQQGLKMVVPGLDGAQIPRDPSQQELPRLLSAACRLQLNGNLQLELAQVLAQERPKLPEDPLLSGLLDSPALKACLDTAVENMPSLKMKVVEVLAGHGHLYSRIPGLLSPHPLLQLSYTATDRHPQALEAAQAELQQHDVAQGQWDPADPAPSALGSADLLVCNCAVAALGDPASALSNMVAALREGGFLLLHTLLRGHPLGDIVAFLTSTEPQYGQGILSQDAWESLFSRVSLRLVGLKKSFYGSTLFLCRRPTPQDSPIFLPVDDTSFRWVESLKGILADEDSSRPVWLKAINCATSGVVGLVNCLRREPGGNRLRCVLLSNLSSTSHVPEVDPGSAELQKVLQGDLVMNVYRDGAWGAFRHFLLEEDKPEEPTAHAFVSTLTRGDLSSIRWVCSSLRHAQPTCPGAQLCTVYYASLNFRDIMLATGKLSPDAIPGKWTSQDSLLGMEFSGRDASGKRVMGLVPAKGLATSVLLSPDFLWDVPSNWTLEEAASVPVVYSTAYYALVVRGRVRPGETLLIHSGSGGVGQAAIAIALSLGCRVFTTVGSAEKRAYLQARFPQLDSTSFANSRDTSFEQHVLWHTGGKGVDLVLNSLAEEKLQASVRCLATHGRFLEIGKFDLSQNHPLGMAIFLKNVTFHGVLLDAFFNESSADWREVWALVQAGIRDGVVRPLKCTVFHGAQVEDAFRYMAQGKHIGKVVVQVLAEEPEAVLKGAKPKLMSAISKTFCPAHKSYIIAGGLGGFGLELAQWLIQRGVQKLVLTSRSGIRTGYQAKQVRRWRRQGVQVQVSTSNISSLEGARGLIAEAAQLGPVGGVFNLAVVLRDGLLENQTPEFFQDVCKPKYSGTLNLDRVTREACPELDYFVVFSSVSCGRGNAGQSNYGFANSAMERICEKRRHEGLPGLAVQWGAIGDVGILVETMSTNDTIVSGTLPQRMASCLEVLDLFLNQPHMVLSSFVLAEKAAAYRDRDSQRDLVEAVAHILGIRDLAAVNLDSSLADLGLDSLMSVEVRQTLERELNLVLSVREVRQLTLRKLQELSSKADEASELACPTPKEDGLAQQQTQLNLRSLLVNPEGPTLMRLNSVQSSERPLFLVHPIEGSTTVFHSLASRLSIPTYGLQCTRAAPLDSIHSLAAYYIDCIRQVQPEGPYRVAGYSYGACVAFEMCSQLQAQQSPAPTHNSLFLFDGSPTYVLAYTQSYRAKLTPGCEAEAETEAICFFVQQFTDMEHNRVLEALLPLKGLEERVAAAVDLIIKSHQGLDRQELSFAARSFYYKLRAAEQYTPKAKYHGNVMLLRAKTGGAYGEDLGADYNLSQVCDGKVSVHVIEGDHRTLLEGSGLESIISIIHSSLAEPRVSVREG
# Aminopeptidase N = biological target: T5, Aminopeptidase N (Plasmodium falciparum FcB1/Columbia, UniProt O96935); experiment: P. falciparum M1AAP inhibitors, biochemical, fluorogenic H-Leu-NHMec substrate, 1536-well (AID 1445); design: species or system Plasmodium falciparum 3D7, 3D7
# T5 sequence (O96935 whole entry): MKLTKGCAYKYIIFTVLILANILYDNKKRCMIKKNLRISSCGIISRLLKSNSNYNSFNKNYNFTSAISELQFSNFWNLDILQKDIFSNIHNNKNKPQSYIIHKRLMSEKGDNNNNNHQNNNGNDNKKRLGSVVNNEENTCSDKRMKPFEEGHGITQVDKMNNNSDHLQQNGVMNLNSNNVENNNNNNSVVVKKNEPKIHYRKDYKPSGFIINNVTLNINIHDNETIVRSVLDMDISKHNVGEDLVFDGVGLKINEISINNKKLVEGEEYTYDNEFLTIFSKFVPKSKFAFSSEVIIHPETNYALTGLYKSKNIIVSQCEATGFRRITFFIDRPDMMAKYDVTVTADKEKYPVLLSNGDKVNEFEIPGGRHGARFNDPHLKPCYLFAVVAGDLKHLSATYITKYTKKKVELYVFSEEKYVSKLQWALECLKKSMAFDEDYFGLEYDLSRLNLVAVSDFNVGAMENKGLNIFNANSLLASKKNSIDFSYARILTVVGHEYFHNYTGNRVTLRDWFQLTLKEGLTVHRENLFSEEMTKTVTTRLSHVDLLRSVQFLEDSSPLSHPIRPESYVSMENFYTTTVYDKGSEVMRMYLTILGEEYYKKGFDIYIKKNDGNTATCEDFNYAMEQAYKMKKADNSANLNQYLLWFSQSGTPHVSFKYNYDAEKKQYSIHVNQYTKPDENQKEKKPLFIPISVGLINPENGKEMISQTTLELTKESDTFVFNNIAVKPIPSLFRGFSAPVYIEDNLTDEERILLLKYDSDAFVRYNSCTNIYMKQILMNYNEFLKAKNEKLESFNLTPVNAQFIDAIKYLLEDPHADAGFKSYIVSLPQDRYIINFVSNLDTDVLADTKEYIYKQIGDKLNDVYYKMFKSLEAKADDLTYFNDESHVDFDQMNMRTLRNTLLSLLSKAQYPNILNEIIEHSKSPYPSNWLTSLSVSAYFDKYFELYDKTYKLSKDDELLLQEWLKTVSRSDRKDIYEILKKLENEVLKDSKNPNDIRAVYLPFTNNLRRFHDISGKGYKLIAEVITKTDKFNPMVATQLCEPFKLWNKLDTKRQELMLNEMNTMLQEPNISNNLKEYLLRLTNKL
# Fatty acid synthase [10] = biological target: T4, Fatty acid synthase; experiment: FAS thioesterase domain inhibitors, dose response, biochemical, kinetic fluorescence intensity (AID 624326); type: functional;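 also: rate of fluorescence rise from hydrolysis of a fluorogenic O-methyl fluorescein ester substrate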
# INS1 = experiment: beta cell apoptosis inhibitors, cytokine rescue, dose response, luminescence, retest (AID 449756); type: functional, cell-based; settings: Rattus norvegicus;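 also: cell death triggered by IL-1 beta plus TNF-alpha plus IFN-gamma mixture; protective hits raise ATP signal compared with cytokine alone wells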
# Caspase-6 = biological target: T6, Caspase-6 (Homo sapiens, UniProt P55212); experiment: human caspase-6 inhibitors, dose response, biochemical, VEID-R110 fluorescence, cherry-pick (AID 720632)
# T6 sequence (P55212 whole entry): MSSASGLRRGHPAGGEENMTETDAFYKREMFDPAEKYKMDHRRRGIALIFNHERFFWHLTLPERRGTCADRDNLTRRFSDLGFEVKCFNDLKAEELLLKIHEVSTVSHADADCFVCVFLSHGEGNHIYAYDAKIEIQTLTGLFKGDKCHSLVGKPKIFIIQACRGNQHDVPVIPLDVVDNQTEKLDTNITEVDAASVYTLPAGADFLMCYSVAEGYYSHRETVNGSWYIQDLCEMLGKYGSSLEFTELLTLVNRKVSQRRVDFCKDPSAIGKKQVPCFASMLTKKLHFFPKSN
# [11] = biological target: T7, Sentrin-specific protease 8 (Homo sapiens, UniProt Q96LD8); type: functional
# T7 sequence (Q96LD8 whole entry): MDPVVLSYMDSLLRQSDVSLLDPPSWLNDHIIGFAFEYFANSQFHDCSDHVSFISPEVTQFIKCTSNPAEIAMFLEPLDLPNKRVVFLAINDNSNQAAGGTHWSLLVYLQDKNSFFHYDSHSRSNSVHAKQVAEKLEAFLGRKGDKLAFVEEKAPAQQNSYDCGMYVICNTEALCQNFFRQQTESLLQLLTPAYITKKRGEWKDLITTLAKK
# [12] = biological target: T7, Sentrin-specific protease 8; type: functional; remark: listed apart in the source
# [13] = biological target: FAD-linked sulfhydryl oxidase ALR (Homo sapiens, UniProt P55789); experiment: inhibitors of human ALR sulfhydryl oxidase, dose response, biochemical, H2O2 detection, luminescence, cherry-pick (AID 493248)
# Sequence of FAD-linked sulfhydryl oxidase ALR (P55789 whole entry): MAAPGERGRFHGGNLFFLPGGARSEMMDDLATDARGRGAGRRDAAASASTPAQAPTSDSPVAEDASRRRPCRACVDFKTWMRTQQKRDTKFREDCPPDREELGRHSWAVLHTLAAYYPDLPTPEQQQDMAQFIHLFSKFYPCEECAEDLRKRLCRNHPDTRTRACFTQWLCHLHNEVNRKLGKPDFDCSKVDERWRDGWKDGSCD
# [14] = biological target: T8, DNA repair protein RAD52 homolog (Homo sapiens, UniProt P43351); type: functional, biochemical
# T8 sequence (P43351 whole entry): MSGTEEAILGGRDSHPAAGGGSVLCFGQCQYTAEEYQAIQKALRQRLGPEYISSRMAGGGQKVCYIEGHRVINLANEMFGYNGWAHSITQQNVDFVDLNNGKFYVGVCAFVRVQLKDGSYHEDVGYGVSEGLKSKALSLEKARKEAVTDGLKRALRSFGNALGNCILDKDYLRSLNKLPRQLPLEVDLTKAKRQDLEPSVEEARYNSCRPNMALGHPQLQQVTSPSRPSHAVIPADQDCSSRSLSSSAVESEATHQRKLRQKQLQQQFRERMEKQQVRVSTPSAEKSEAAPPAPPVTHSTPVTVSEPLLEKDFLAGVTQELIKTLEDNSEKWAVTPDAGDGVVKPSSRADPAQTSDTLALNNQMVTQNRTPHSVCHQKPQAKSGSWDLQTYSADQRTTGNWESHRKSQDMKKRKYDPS
# [15] = microbe, parasite or virus in culture; type: functional; settings: Mycobacterium tuberculosis
# [16] = cytotoxicity in HPDE-C7 cells, cell-based, fluorescence, HTS (AID 430); type: functional; settings: Homo sapiens
# [17] = cytotoxicity in KRAS-transformed pancreatic duct cells, primary screen, cell-based, fluorescence, HTS (AID 431); type: functional; settings: Homo sapiens;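 also: cell line used: HPDE-C7K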
smiles,measurement,setting,value
Clc1ccc2nc(CN3CCCc4ccccc43)cn2c1,IC50,Bcl-2-like protein 10,72.5 µM (inactive)
O=C(C[n+]1cc(-c2ccc(F)cc2)n2c1CCC2)c1cccs1,EC50,[1],> 12 µM (not active)
same,EC50,[2],< 0.1 µM (active)
same,EC50,[3],3.26 µM (active)
same,EC50,[4],0.136 µM (inconclusive)
same,EC50,H4,29.9 µM (inconclusive)
same,EC50,[5],1.06 µM (active)
CCC(C)Sc1nc2c3ccccc3nc-2c(O)n1C (centres undefined),IC50,[6],> 67.5 µM (inactive)
same,EC50,[7],> 260 µM (inactive)
same,EC50,[8],> 67.5 µM (inactive)
O=C(c1ccc([N+](=O)[O-])cc1)N1CCOCC1,IC50,[6],> 67.4 µM (inactive)
same,EC50,[8],> 67.4 µM (inactive)
O=C(CNC(=O)c1ccccc1)N/N=C/c1cc(Br)ccc1O,IC50,Fatty acid synthase [9],12.7 µM (active)
same,IC50,Aminopeptidase N,22.6 µM (active)
same,IC50,Fatty acid synthase [10],10.2 µM (active)
same,AC50,INS1,3.5 µM (active)
Cc1[nH]cnc1CN1CCc2c(c3ccccc3n2C)C1=O [ALOSETRON HYDROCHLORIDE],AC50,Caspase-6,11.5 µM (active)
same,IC50,[11],18.2 µM (active)
same,IC50,[12],7.1 µM (active)
CN(C)CCCN1c2ccccc2Sc2ccc(Cl)cc21 [CHLORPROMAZINE HYDROCHLORIDE],AC50,[13],1.01 µM (active)
same,AC50,[14],< 25.3 µM (active)
same,CC50,[15],26 µM (active)
same,EC50,[16],> 20 µM (not active)
same,EC50,[17],> 20 µM (not active)
